Legend:
Conditions in all cases: treatment time: 24 h
U2OS-LMNB1-TUBA1B-ACTB = assay: cell count relative to DMSO control (panel C1, DRAQ5/ER stain) (fraction of control); higher = more cells (less toxicity)
Experimental: (§1)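 U2OS-derived cells in 384-well plates were treated for 24 h with a 7-point 2-fold dilution series (top dose 20 µM for most compounds; final max DMSO 1%), then fixed, stained in four marker panels and imaged on a Cellomics ArrayScan. Cell count per treatment (three replicate plates merged) is given as a fraction of DMSO control. Panel A used parental U2OS, panel B U2OS-mOrange2-Peroxisome, panel C1 U2OS-LMNB1-TUBA1B-ACTB (DRAQ5 nuclei).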

U2OS-mOrange2-Peroxisome = assay: cell count relative to DMSO control (panel B, lysosome/peroxisome/lipid stain) (fraction of control); higher = more cells (less toxicity)
Experimental: as §1

U2OS = assay: cell count relative to DMSO control (panel A, nuclei/RNA/PMG/mitochondria stain) (fraction of control); higher = more cells (less toxicity)
Experimental: as §1

O=C(/C=C/c1cccc(S(=O)(=O)Nc2ccccc2)c1)NO [belinostat]
cell count
Conditions	0.3125 µM	0.625 µM	1.25 µM	2.5 µM	5 µM	10 µM	20 µM
U2OS	1.07	1.03	1.1	1.07	1.04	0.557	0.351
U2OS-LMNB1-TUBA1B-ACTB	1.04	1.04	1.02	0.99	1.09	0.701	0.397
U2OS-mOrange2-Peroxisome	0.814	0.805	1.05	1.14	1.19	1.18	0.581

Cn1c(CCCC(=O)O)nc2cc(N(CCCl)CCCl)ccc21 [bendamustine]
cell count
Conditions	0.3125 µM	0.625 µM	1.25 µM	2.5 µM	5 µM	10 µM	20 µM
U2OS	0.945	0.814	0.265	0.1	0.145	0.133	0.162
U2OS-LMNB1-TUBA1B-ACTB	1.02	1.03	0.607	0.26	0.277	0.264	0.284
U2OS-mOrange2-Peroxisome	0.462	0.439	0.374	0.371	0.366	0.422	0.454

Cc1c(N)nc([C@H](CC(N)=O)NC[C@H](N)C(N)=O)nc1C(=O)N[C@H](C(=O)N[C@H](C)[C@@H](O)[C@H](C)C(=O)N[C@H](C(=O)NCCc1nc(-c2nc(C(=O)NCCC[S+](C)C)cs2)cs1)[C@@H](C)O)[C@@H](O[C@@H]1O[C@@H](CO)[C@@H](O)[C@H](O)[C@@H]1O[C@H]1O[C@H](CO)[C@@H](O)[C@H](OC(N)=O)[C@@H]1O)c1c[nH]cn1 [bleomycin]
cell count
Conditions	0.3125 µM	0.625 µM	1.25 µM	2.5 µM	5 µM	10 µM	20 µM
U2OS	0.746	0.849	0.8	0.933	0.701	0.817	0.794
U2OS-LMNB1-TUBA1B-ACTB	0.845	0.893	0.934	1.02	0.88	0.909	0.887
U2OS-mOrange2-Peroxisome	1.36	1.16	1.31	1.26	1.32	1.25	1.34

C[C@H]1CCC/C=C/[C@@H]2C[C@H](O)C[C@H]2[C@H](O)/C=C/C(=O)O1 [brefeldin-a]
cell count
Conditions	0.3125 µM	0.625 µM	1.25 µM	2.5 µM	5 µM	10 µM	20 µM
U2OS	0.543	0.545	0.527	0.584	0.586	0.644	0.577
U2OS-LMNB1-TUBA1B-ACTB	0.698	0.697	0.661	0.616	0.632	0.584	0.529
U2OS-mOrange2-Peroxisome	0.53	0.567	0.55	0.574	0.515	0.544	0.557

CN(C)[C@@H]1C(O)=C(C(N)=O)C(=O)[C@@]2(O)C(O)=C3C(=O)c4c(O)ccc(Cl)c4[C@@](C)(O)[C@H]3C[C@@H]12 [chlortetracycline]
cell count
Conditions	0.3125 µM	0.625 µM	1.25 µM	2.5 µM	5 µM	10 µM	20 µM
U2OS	1.12	1.07	1.08	1.06	1.02	0.933	0.783
U2OS-LMNB1-TUBA1B-ACTB	1.15	1.12	1.1	0.983	0.989	1.07	0.897
U2OS-mOrange2-Peroxisome	0.886	0.771	0.779	0.944	1.01	0.62	0.486

N.N.[Cl][Pt][Cl] [cisplatin]
cell count
Conditions	0.15625 µM	0.3125 µM	0.625 µM	1.25 µM	2.5 µM	5 µM	10 µM
U2OS	1.07	1.04	1.12	1.03	1.02	1.02	0.948
U2OS-LMNB1-TUBA1B-ACTB	1.01	1.06	1.12	1.03	0.956	0.991	1.01
U2OS-mOrange2-Peroxisome	1.19	0.977	0.858	0.908	0.967	1.05	0.956

C=C1[C@@H](C)[C@H]2[C@H](Cc3ccccc3)NC(=O)[C@]23[C@H](OC(C)=O)/C=C/[C@@](C)(O)C(=O)[C@@H](C)C/C=C/[C@H]3[C@@H]1O [cytochalasin-d]
cell count
Conditions	0.000781 µM	0.0015625 µM	0.003125 µM	0.00625 µM	0.0125 µM	0.025 µM	0.05 µM
U2OS	0.938	0.944	0.899	1	0.643	0.463	0.403
U2OS-LMNB1-TUBA1B-ACTB	1.08	1.04	1.04	0.821	0.499	0.374	0.356
U2OS-mOrange2-Peroxisome	0.993	1.12	1.29	1.24	0.826	0.656	0.602

Cc1c2oc3c(C)ccc(C(=O)N[C@@H]4C(=O)N[C@H](C(C)C)C(=O)N5CCC[C@H]5C(=O)N(C)CC(=O)N(C)[C@@H](C(C)C)C(=O)O[C@@H]4C)c3nc-2c(C(=O)N[C@@H]2C(=O)N[C@H](C(C)C)C(=O)N3CCC[C@H]3C(=O)N(C)CC(=O)N(C)[C@@H](C(C)C)C(=O)O[C@@H]2C)c(N)c1=O [dactinomycin]
cell count
Conditions	0.3125 µM	0.625 µM	1.25 µM	2.5 µM	5 µM	10 µM	20 µM
U2OS	0.928	0.89	0.807	0.741	0.73	0.381	0.229
U2OS-LMNB1-TUBA1B-ACTB	1.05	1.09	1	0.993	0.824	0.661	0.418
U2OS-mOrange2-Peroxisome	1.08	1.07	1.01	0.743	0.663	0.243	0.139

COc1cccc2c1C(=O)c1c(O)c3c(c(O)c1C2=O)C[C@@](O)(C(C)=O)C[C@@H]3O[C@H]1C[C@H](N)[C@H](O)[C@H](C)O1 [daunorubicin]
cell count
Conditions	0.07812 µM	0.15625 µM	0.3125 µM	0.625 µM	1.25 µM	2.5 µM	5 µM
U2OS	0.92	0.928	0.96	0.829	0.457	0.376	0.183
U2OS-LMNB1-TUBA1B-ACTB	0.953	0.99	1.02	0.912	0.645	0.613	0.472
U2OS-mOrange2-Peroxisome	0.537	0.529	0.527	0.605	0.618	0.398	0.152

CO[C@H]1C[C@@H]2CC[C@@H](C)[C@@](O)(O2)C(=O)C(=O)N2CCCC[C@H]2C(=O)O[C@H]([C@H](C)C[C@@H]2CC[C@@H](OP(C)(C)=O)[C@H](OC)C2)CC(=O)[C@H](C)/C=C(\C)[C@@H](O)[C@@H](OC)C(=O)[C@H](C)C[C@H](C)/C=C/C=C/C=C/1C [deforolimus]
cell count
Conditions	0.07812 µM	0.15625 µM	0.3125 µM	0.625 µM	1.25 µM	2.5 µM	5 µM
U2OS	0.964	0.74	0.655	0.557	0.504	0.582	0.382
U2OS-LMNB1-TUBA1B-ACTB	0.878	0.753	0.625	0.644	0.471	0.438	0.373
U2OS-mOrange2-Peroxisome	0.782	0.674	0.595	0.61	0.485	0.385	0.364

CNCCCN1c2ccccc2CCc2ccccc21 [desipramine]
cell count
Conditions	0.3125 µM	0.625 µM	1.25 µM	2.5 µM	5 µM	10 µM	20 µM
U2OS	0.822	0.55	0.489	0.481	0.379	0.243	0.189
U2OS-LMNB1-TUBA1B-ACTB	0.972	0.817	0.772	0.652	0.595	0.32	0.333
U2OS-mOrange2-Peroxisome	0.62	0.64	0.617	0.571	0.15	0.115	0.0511

C[C@H]1O[C@@H](O[C@H]2[C@@H](O)C[C@H](O[C@H]3[C@@H](O)C[C@H](O[C@H]4CC[C@@]5(C)[C@H](CC[C@@H]6[C@@H]5CC[C@]5(C)[C@@H](C7=CC(=O)OC7)CC[C@]65O)C4)O[C@@H]3C)O[C@@H]2C)C[C@H](O)[C@@H]1O [digitoxin]
cell count
Conditions	0.07812 µM	0.15625 µM	0.3125 µM	0.625 µM	1.25 µM	2.5 µM	5 µM
U2OS	1.07	1.02	1.04	1.11	1.13	1.09	1.11
U2OS-LMNB1-TUBA1B-ACTB	0.905	1.04	1.03	1.05	1.02	1.11	1.12
U2OS-mOrange2-Peroxisome	1.24	1.23	0.888	1.04	1.01	1.09	1.02

COc1cccc2c1C(=O)c1c(O)c3c(c(O)c1C2=O)C[C@@](O)(C(=O)CO)C[C@@H]3O[C@H]1C[C@H](N)[C@H](O)[C@H](C)O1 [doxorubicin]
cell count
Conditions	0.07812 µM	0.15625 µM	0.3125 µM	0.625 µM	1.25 µM	2.5 µM	5 µM
U2OS	0.933	1.03	0.932	0.836	0.84	0.754	0.34
U2OS-LMNB1-TUBA1B-ACTB	1.08	1.17	1.12	1.23	0.925	0.807	0.624
U2OS-mOrange2-Peroxisome	0.712	0.735	0.747	0.899	0.86	1.1	0.37

O=C(N/N=C/c1ccc(O)c(O)c1)c1cc2ccccc2cc1O [dynasore]
cell count
Conditions	0.3125 µM	0.625 µM	1.25 µM	2.5 µM	5 µM	10 µM	20 µM
U2OS	0.981	1.01	0.925	1.02	0.867	0.807	0.638
U2OS-LMNB1-TUBA1B-ACTB	1.02	1.05	1.06	1.12	0.953	0.966	0.826
U2OS-mOrange2-Peroxisome	0.779	0.85	0.742	1.03	0.645	0.497	0.501

CCCCCCCC(=O)N[C@H](CN1CCCC1)[C@H](O)c1ccc2c(c1)OCCO2 [eliglustat]
cell count
Conditions	0.3125 µM	0.625 µM	1.25 µM	2.5 µM	5 µM	10 µM	20 µM
U2OS	0.927	0.977	0.988	1.01	1.1	1.01	0.973
U2OS-LMNB1-TUBA1B-ACTB	1.08	1.13	1.13	1.08	1.09	1.07	1.02
U2OS-mOrange2-Peroxisome	1.25	0.795	0.804	0.767	0.889	0.945	1.12

CC[C@H]1CN2CCc3cc(OC)c(OC)cc3[C@@H]2C[C@@H]1C[C@H]1NCCc2cc(OC)c(OC)cc21 [emetine]
cell count
Conditions	0.3125 µM	0.625 µM	1.25 µM	2.5 µM	5 µM	10 µM	20 µM
U2OS	1.08	1.01	1.01	0.994	1.02	1.05	0.753
U2OS-LMNB1-TUBA1B-ACTB	1.11	1.08	1	1.06	1.02	0.916	0.899
U2OS-mOrange2-Peroxisome	1.04	1.29	1.13	1.04	1.06	1.15	1.08

— the supplement of paper PMC9780213
